# Counter-ions that a name gives are not always drawn.
# How the values were obtained:
# [1] = test system: dogs; assay: 91-day oral study in dogs; assay type: in vivo, dog
# [2] = test system: rats; assay: 91-day long-term safety assessment study in rats; assay type: in vivo, rat
# From the text: These changes were not associated with any gross clinical abnormality.
# [3] = test system: rats; assay: 28-day study in rats; assay type: in vivo, rat
# Method: A 28-day study in rats was also carried out at 0, 50, 500 and 2000 mg/kg/day.
# [4] = test system: U937 cells; assay: apoptosis induction of U937 cells, active caspase 3 indirect immunofluorescence; assay type: cell-based; settings: 1 μM, 24 hours
# Method: U937 cells (from ATCC Rockville, Md.) were grown in RPMI media supplemented with 5% FCS, glutamine, antibiotic/antimycotic and sodium pyruvate. Total RNA was isolated from two U937 cultures, one treated with 5 nM TPA for 48 hours and one grown in normal media as listed above, using the Rouche High Pure RNA Isolation Kit (cat #1 828 665) as per manufacturers protocol. cDNA was then synthesized from the total RNA using GibcoBRL SuperscriptII (Cat #18064-022) reverse transcriptase as per manufacturers protocol. The resulting cDNA was used as a template for RT-PCR reactions using primer sets specific for PDE2 (forward: […], reverse: […]) or PDE5 (forward: […], reverse: […]). mRNA for PDE2 and 5 were both present in the untreated U937 cells. Upon treatment with TPA, the relative amounts of PDE2 mRNA increased 5 fold. Therefore, U937 cells treated with TPA and driven to differentiate into an activated macrophage like state have elevated levels of PDE2 mRNA (see FIG. 1).
# The presence of PDE2 and PDE5 protein within U937 cells was confirmed by indirect immunofluorescence (IIF). U937 cells were cultured as above. Two U937 cultures, one grown in the presence of 5 nM TPA for 48 hours and one grown in normal media were processed. All cultures were collected by centrifugation (Shandon Cytospin, 2 minutes @600 rpm) onto poly-L lysine-coated slides and immediately fixed in fresh 3% paraformaldehyde buffered in PBS for 10 minutes. Adherent cultures were grown on coverslips and fixed as above. Cells were permeablized in 0.2% Triton-100 for 2 minutes. Slides were blocked with blocking buffer (5% goat serum, 5% glycerol, 1% gelatin from cold water fish skin and 0.04% NaN3 in PBS) for 1 hour at room temperature.
# Slides were then incubated for 1 hour at 37° C. in a humid chamber with antibodies specific for PDE2 (generated in a sheep against the peptide […]) or PDE5 (generated in sheep against the peptide […]). […]
# The level of apoptosis in U937 cells was quantified by scoring 500 consecutive cells for the presence of active caspase 3. […]
# [5] = 91 days, highest dose group (300 mg/kg/day)
# [6] = 28 days, 50, 500 and 2000 mg/kg/day
smiles,measurement,setting,value
"CC1=C(CC(=O)NCc2ccccc2)c2cc(F)ccc2/C1=C\c1ccncc1 [Example 38, (Z)-5-Fluoro-2-methyl-(4-pyridylidene)-3-(N-benzyl)indenylacetamide Hydrochloride]",feces observation,"[1]; 91 days, 150 and 300 mg/kg/day",Orange discoloration of the feces
same,microscopic alterations (liver),"[1]; 91 days, highest dose group",no microscopic alterations
same,body weights,[1]; [5],Slightly lowered body weights
same,liver weights,[1]; [5],increased liver weights
same,route of elimination (suggested by feces colour),"[1]; oral, 91 days",most of Compound 38 was being eliminated via the feces
same,toxicological effects overall,"[1]; oral, 91 days, 50, 150 and 300 mg/kg/day",no toxicological effects
same,clinical biochemistry and hematology,[2]; 91 days,no changes in clinical biochemistry and hematology were evident
same,"microscopic finding, follicular cells","[2]; 91 days, 500 mg/kg/day",follicular cell hypertrophy
same,"microscopic finding, kidneys","[2]; 91 days, 200 and 500 mg/kg/day",increase in accumulation of hyalin droplets in the kidneys
same,"microscopic finding, liver","[2]; 91 days, 200 and 500 mg/kg/day",slight hepatocellular hypertrophy
same,liver and thyroid/parathyroid weights,"[2]; 91 days, males and females at 200 and 500 mg/kg/day",dose-related trend to increased liver and thyroid/parathyroid weights
same,toxicological effects overall,"[2]; oral, 91 days, 50, 200 and 500 mg/kg/day",did not produce any major toxicological effects
same,macroscopic tissue changes at necropsy,[3]; 28 days,No macroscopic tissue changes
same,liver weights,"[3]; 28 days, 2000 mg/kg/day",statistically significant increase in liver weights
same,thyroid weights,"[3]; 28 days, 2000 mg/kg/day",statistically significant increases in thyroid weights
same,"body weight changes, ophthalmoscopic examinations, hematological and blood chemistry values, urinalysis",[3]; [6],unremarkable
same,clinical observations,[3]; [6],no abnormal clinical observations
same,histopathological evaluation of tissues,"[3]; 28 days, generally a small number of animals at 2000 mg/kg/day","traces of follicular cell hypertrophy, increased numbers of mitotic figures (suggestive of possible cell proliferation) in the thyroid gland and mild centrilobular hypertrophy in the liver"
same,liver and thyroid weight increases at the lower doses,"[3]; 28 days, lower doses (50, 500 mg/kg/day)",not statistically significant
same,apoptosis by active caspase 3 image (FIG. 8),[4],undergoing apoptosis as reflected by the presence of active caspase 3

# Source: patent US6479493B1, “Methods for treatment of type I diabetes” (Cell Pathways, Inc., priority 2001, dated 2002)
